This is an account of results in US20160152560A1, “Compounds for the treatment of hypertension and hypertensive end stage renal disease” (THE REGENTS OF THE UNIVERSITY OF CALIFORNIA, priority 2013, published 2016).

Where “and” joins values, the source holds several entries; their conditions need not be identical. Equal values may be shown once. Read-outs that look alike come from different tables or passages of the source. Ends that are not written are not given here. A value given as a limit tells only on which side of the number the result lay.

Series [1] deals with T1, nicotinic cholinergic receptor.
T1 construct: nicotine 30 μM, PC12 cells, 30 min; other: Hill plot, nicotine 30 μM, PC12 cells; other: screening at 0.5 μM and 5 μM doses; nicotine 30 μM, PC12 cells; other:
As to the kind of experiment: Nicotine-stimulated [3H]-norepinephrine (catecholamine) secretion from PC12 cells. In kind it is cell-based, rat. The note with it: for IC50 / Hill slope (cooperativity of inhibition of secretion): nicotine 30 μM, PC12 cells; for Norepinephrine secretion at ascending nicotine doses (noncompetitive inhibition): nicotine 10 to 1000 μM, PC12 cells (FIG. 3C); for Inhibition of catecholamine release triggered by nicotine: nicotine stimulation, PC12 cells (FIG. 3B); for Hill slope (cooperativity of inhibition of secretion): Hill plot. On the procedure:
(§1) Rat PC12 pheochromocytoma cells were grown at 37° C. with 6% CO2, in 12-well plates, in Dulbecco's modified Eagle's medium (high glucose) supplemented with fetal bovine serum, horse serum, and penicillin/streptomycin. Secretion assays were performed as described previously (N. Biswas, et al., Endocrinology, 149 (2008), 749-757). Cells were labeled for 3 h with 1 μCi/mL of [^3H]-norepinephrine (NET678, Perkin-Elmer, Waltham, Mass.), then washed three times with basal medium and one time with secretion buffer. Subsequently, the cells were incubated for 30 min with or without the agonist nicotine (30 μM), in the presence or absence of test compounds (0.5 μM or 5 μM). For IC50 determinations, secretion assays were performed in the presence of increasing concentrations of test compounds. The extracellular secretion medium and the cell lysates were collected for [^3H]-norepinephrine measurement by liquid scintillation counting. Results were expressed as percent secretion:
(§2) % secretion=[amount released/(amount released+amount in lysate)]×100.
(§3) Net secretion was calculated as agonist-stimulated release minus basal release. To establish the specificity of secretory inhibition by test compounds, in some experiments catecholamine release was triggered with other classes of secretagogues that bypass the nicotinic cholinergic pathway: membrane depolarization (55 mM KCl); P2x purinergic receptor stimulation (100 μM ATP); K^+ (repolarizing) channel blockade (2 mM BaCl2 in the absence of extracellular Ca^2+); or a Ca^2+ ionophore (1 μM ionomycin).
Actions of test compounds were compared with the classical noncompetitive nicotinic antagonist chlorisondamine, wherein labeled cells were incubated with different doses of nicotine in the presence or absence of peptide antagonists or chlorisondamine (5 μM).

The target of series [2] is nicotinic cholinergic receptor. The following applies: Mahata et al., Mol. Pharmacol. 66 (2004); read-out: IC50 of human catestatin, previously measured; cited from earlier work.
The subject of series [3] is PC12 cells. Description: Catecholamine release triggered by secretagogues that bypass the nicotinic cholinergic pathway (KCl, ATP, BaCl2, ionomycin). The following applies: 55 mM KCl, 100 μM ATP, 2 mM BaCl2, 1 μM ionomycin. In kind it is cell-based, rat. On the procedure:
as §3
In addition to nicotinic-cholinergic stimulation, several secretagogues that act at later stages in the secretory pathway than the nicotinic receptor were tested, including membrane depolarization (by KCl), or blockade of repolarization (by Ba^2+). In addition, secretagogues that act on different targets from the nicotinic-cholinergic receptor, such as P2x (ATP) or artificial Ca^2+ pores (Ca^2+ ionophore ionomycin) were used.

The test system of series [4] is PC12 cells. Description: Basal [3H]-norepinephrine secretion from PC12 cells. The following applies: no agonist. In kind it is cell-based, rat. On the procedure:
as §1, §2
The compounds were also tested to determine their effect on basal secretion.

The test system of another series is nicotinic receptors. Description: Nicotine-induced 45Ca2+ uptake by PC12 cells. In kind it is cell-based, rat. The note with it: nicotine 30 μM, read-out: IC50 for inhibition of nicotine-induced 45Ca2+ uptake. On the procedure:
Nicotinic cholinergic secretory responses in the chromaffin cells are triggered by an early influx of calcium. To test the ability of the compounds to interfere at this early stage of signal transduction, PC12 cells were stimulated with nicotine (30 μM) in the presence or absence of test compounds and agonist-mediated uptake of ^45Ca^2+ was measured. ^45Ca^2+ uptake was performed as described previously with minor modifications S. K. Mahata et al., J. Clin. Invest., 100 (1997), 1623-1633). Briefly, PC12 cells were grown on poly-L-lysine coated 6-well culture dishes, and were washed with 1 mL release buffer (150 mmol/L NaCl, 5 mmol/L KCl, 2 mmol/L CaCl2, 10 mmol/L Hepes buffer, pH 7.4) every 15 minutes for 1 hour at 37° C. Cells were then pre-incubated for 1 min in release buffer in the presence or absence of test compounds. Cells were incubated for 2 min with 1 mL of Ca^2+-free release buffer containing 2 μCi of ^45Ca^2+ (catalog number NEZ01300, Perkin-Elmer), 30 μM nicotine in the presence or absence of test compounds. Thereafter, Ca^2+ uptake was terminated by the addition of 2 mL of ice-cold Ca^2+-free secretion medium containing 2 mmol/L EGTA and 1 mmol/L LaCl3, and further washed six times with 2 mL of the same buffer. Cell lysis buffer (secretion medium containing 0.1% Triton X-100, 1 mL) was then added, and the lysate was collected for liquid scintillation counting.

Series [5] relates to BPH/2J polygenic hypertensive mice. As to the kind of experiment: Telemetric continuous intra-arterial blood pressure and heart rate in hypertensive BPH/2J mice. The note with it: 5 μg/g body weight i.p. In kind it is in vivo, mouse. The text has this:
Telemetric measurement of blood pressure (BP) in conscious hypertensive mice (polygenic hypertensive BPH/2J mouse model; F. A. Wright et al., Hypertension, 34 (1999), p. 625-630) was achieved using a Data Sciences International (DSI; Transoma Medical) Physiol Tel telemetry system, implanting a catheter coupled to a TA11PA-C20 (DSI) transmitter, as described (N. R. Mahapatra et al., J. Clin. Invest., 115 (2005), 1942-1952). The animals and implants were left to stabilize for ten days after surgery. BPH/2J polygenic hypertensive mice (n=7/group) were then treated with test compound (5 μg/g body weight, intra-peritoneal; or vehicle). BP and heart rate (HR) were measured continuously over 24 hours, before and after compound administration.

Setting [6] is: Table 1, 30 min, read-out: IC50: concentration that achieves 50% inhibition of secretion.
The mark [7] stands for this setting: increasing compound doses, read-out: IC50 from secretion assays with increasing compound doses.

On to `Nc1nc(N)c(/N=N/c2ccc(S(=O)(=O)Nc3ncccn3)cc2)cc1/N=N/c1ccccc1` [TKO-10-12], for which, in series [1] (setting [6]), the IC50 was found to be 2000 nM.

As to “SSMKLSFRARAYGFRGPGPQL [Human catestatin]”, in series [2], the IC50 was 820 nM.

Consider `C/N=C(\NC)c1ccc(/N=C(\NC)c2ccc(/C(=N/c3ccc(/C(=N/C)NC)cc3)NC)cc2)cc1` [TKO-10-3], for which the IC50 in series [1] (setting [6]) was determined as 1700 nM.

For `Cc1cc(NC(=O)NCc2ccc(N3C(N)=NC(N)=NC3(C)C)cc2)ccc1S(=O)(=O)F` [TKO-10-13], the IC50 in series [1] (setting [6]) amounted to 870 nM.

On to `Cc1ccnc(NS(=O)(=O)c2ccc(/N=N/c3cc(/N=N/c4ccccc4)c(N)nc3N)cc2)n1` [TKO-10-11], for which the IC50 in series [1] (setting [6]) was above 5000 nM.

As to `O=C(Nc1cc(C2=NCCN2)cc(C2=NCCN2)c1)Nc1cc(C2=NCCN2)cc(C2=NCCN2)c1` [TKO-10-2], the IC50 in series [1] (setting [6]) was above 5000 nM.

Take `CCN1CCCC(CNc2cc(C)nc(NC(=N)Nc3ccc(Cl)c(Cl)c3)n2)C1` (stereo not drawn) [TKO-10-20]: the IC50 in series [1] (setting [6]) is 1100 nM.

In the case of `Nc1nc(N)c2nc(CNc3ccc(C(=O)N[C@@H](CCC(=O)O)C(=O)O)cc3)cnc2n1` [TKO-10-1], in series [1] (setting [6]), the IC50 was above 5000 nM.

In the case of `Nc1nc(N)c(-c2ccc(Cl)cc2)c(CCc2ccc(NC(=O)CBr)cc2)n1` [TKO-10-10], the IC50 in series [1] (setting [6]) was determined as 1500 nM.

`CNC(=N)c1ccc(NC(=N)c2ccc(Cl)c(C(=N)Nc3ccc(C(=N)NC)cc3)c2)cc1` [TKO-10-6]: the IC50 in series [1] (setting [6]) came out at 1800 nM.

Turning to `CCN(CC)CC(O)CNc1cc(C)nc(NC(=N)Nc2ccc(Cl)c(Cl)c2)n1` (stereo not drawn) [TKO-10-14], the “Inhibition of catecholamine release caused by agents acting distal to the receptor or on other receptor classes” value in the series on PC12 cells [3] is “not when secretion was caused by agents acting distal to the receptor, or on other receptor classes”. Further, the IC50 in series [1] (setting [6]) is 680 nM. The “Norepinephrine secretion at ascending nicotine doses (noncompetitive inhibition)” value in series [1] (30 min) is recorded as “reduced norepinephrine secretion significantly”. In addition, the “Inhibition of catecholamine release triggered by nicotine” value in series [1] is reported as “significantly inhibited catecholamine release”. In addition, the “Effect on basal secretion (~5% 3H-NE release)” value with PC12 cells [4] was “remained unaltered”.

In the case of `CC1(C)N=C(N)N=C(N)N1c1cccc(CNC(=O)Nc2ccccc2)c1` [TKO-10-15], the IC50 in series [1] (setting [6]) was above 5000 nM.

As to `CNC(=O)c1cc(NC(=O)Nc2cccc(C3=NCCN3)c2)cc(NC(=O)Nc2cccc(C3=NCCN3)c2)c1` [TKO-10-5], the IC50 in the series on nicotinic receptors is ~100 nM and 100 nM; in series [1] (setting [6]) it was 1100 nM; in series [1] (setting [7]) it was 1000 nM. Further, in the series with PC12 cells [3], the “Inhibition of catecholamine release caused by agents acting distal to the receptor or on other receptor classes” value was “not when secretion was caused by agents acting distal to the receptor, or on other receptor classes”. In series [1], the “Hill slope (cooperativity of inhibition of secretion)” value is reported as “near unity”. In addition, in series [1] (30 min), the “Norepinephrine secretion at ascending nicotine doses (noncompetitive inhibition)” value is reported as “reduced norepinephrine secretion significantly”. In addition, in series [1], the “Inhibition of catecholamine release triggered by nicotine” value was “significantly inhibited catecholamine release”. The “Effect on basal secretion (~5% 3H-NE release)” value in the series on PC12 cells [4] is given as “remained unaltered”.

Take `CCN1CCC(CNc2cc(C)nc(NC(=N)Nc3cc(Cl)cc(Cl)c3)n2)C1` (stereo not drawn) [TKO-10-17]: the IC50 in series [1] (setting [6]) was found to be 1900 nM.

On to `Nc1ccc(CCCCc2nc(N)nc(N)c2-c2ccc(Cl)c(Cl)c2)cc1` [TKO-10-19], for which the IC50 in series [1] (setting [6]) was found to be 2600 nM.

With `CCN1CCC(CNc2cc(C)nc(NC(=N)Nc3ccc(Cl)c(Cl)c3)n2)C1` (stereo not drawn) [TKO-10-16], the IC50 in series [1] (setting [6]) turned out to be 450 nM.

Consider `C/N=C(/NC)c1ccc(NC(=O)Nc2cccc(NC(=O)Nc3ccc(/C(=N\C)NC)cc3)c2)cc1` [TKO-10-4], for which the IC50 with nicotinic receptors is ~70 nM and 70 nM; in series [1] (setting [6]) it was 230 nM; in series [1] (setting [7]) it was 41 nM.

Turning to `C/N=C(/NC)c1ccc(NC(=O)Nc2ccc(C)c(NC(=O)Nc3ccc(/C(=N\C)NC)cc3)c2)cc1` [TKO-10-7], the IC50 was ~100 nM and 100 nM in the series on nicotinic receptors; 290 nM in series [1] (setting [6]); 24 nM in series [1] (setting [7]).

With `C/C(=N\NC(=N)N)c1cccc(NC(=S)Nc2cccc(/C(C)=N/NC(=N)N)c2)c1` [TKO-10-18], the IC50 in the series with nicotinic receptors is ~90 nM and 90 nM. Further, the “Hill slope (cooperativity of inhibition of secretion)” value in series [1] is listed as “near unity”. Further, in series [1] (setting [6]), the IC50 is 180 nM. Also, in series [1] (setting [7]), the IC50 was determined as 17 nM. In series [5], the “Fall in heart rate (HR)” value is around 180 beats/min, the “Reflex tachycardia after fall in BP” value is listed as “not accompanied by reflex tachycardia”, the “Time by which BP declines were apparent” value lay within 10 to 30 min and the “Time for which BP declines were maintained” value is reported as at most 60 min. In series [5] (initial DBP 104.9±0.1 mmHg), the “Reduction in DBP” value is given as around 25 mmHg. Moreover, the “Reduction in SBP” value in series [5] (initial SBP 145.0±0.6 mmHg) is on record as around 33 mmHg.

In the case of `CCN/C(=N/c1cccc(C2=NCCN2)c1)c1ccc(/C(=N\c2cccc(C3=NCCN3)c2)NCC)cc1` [TKO-10-8], the IC50 in series [1] (setting [6]) stood at 1600 nM.

As to `CNC(=O)c1ccc(NC(=O)Nc2cccc(C3=NCCN3)c2)cc1NC(=O)Nc1cccc(C2=NCCN2)c1` [TKO-10-9], the IC50 in series [1] (setting [6]) turned out to be 1400 nM.
